Among the data in US8828997B2, “2,3-dihydro-1H-imidazo(1,2-a)pyrimidin-5-one derivatives, preparation thereof, and pharmaceutical use thereof” (Sanofi, priority 2009, dated 2014) are IC50 and inhibition values, retold here.

By IC50 is commonly meant the concentration at which inhibition is half-maximal. As a reminder, the inhibition is the change of the read-out against control, counted positive when it falls.

Molecules are shown by their SMILES.

Format in all cases: cell-based
Assay [1] relates to translocation of the LC3 protein in Hela GFP-LC3 cells. Nature of the assay: Translocation of the LC3 protein in Hela human cells measured by image analysis cytometry (test C, autophagy). As to conditions: Homo sapiens, HeLa, 2 h, EBSS + 10 μM hydroxychloroquine, cells with LC3 granulations, absolute IC50. As to the method: Inhibitory activity of the molecules on autophagy is measured by means of the translocation of the LC3 protein from the cytoplasm to the autophagosomes. For this, Hela cells were transfected with a vector encoding the chimeric protein GFP-LC3. A Hela clone stably expressing the GFP-LC3 protein was selected.
Study of the Translocation of the LC3 Protein in Hela Human Cells, Measured by Image Analysis Cytometry (Test C):
On day 1, the Hela GFP-LC3 cells are seeded into 96-well plates coated with poly-D-lysine (Greiner, #655946) at the concentration of 15000 cells/well in 200 μl of DMEM medium (DMEM Gibco #11960-044) containing 10% of foetal calf serum (FCS Gibco, #10500-056) and 1% glutamine (L-Glu Gibco #25030-024), and incubated at 37° C., 5% CO2, overnight.
On day 2, the cells are washed twice with EBSS (Sigma #E3024). The cells are then incubated in EBSS, 10 μM hydroxychloroquine and test products, for 2 hours at 37° C. in the presence of 5% CO2. The molecules are diluted in dimethyl sulphoxide (DMSO Sigma #D2650), the final DMSO percentage being 0.1%. The molecules are tested at increasing concentrations in a range that can extend from 10 nM to 1 μM.
After this incubation, the cells are fixed with 4% paraformaldehyde (Sigma #HT501128 4L) for 10 min. The cells are then washed twice with PBS and the nuclei then stained with 2 μg/ml of Hoechst 33342 (Invitrogen #H3570). The 96-well plates are then read with the iCyte image analysis cytometer (Compucyte).
The activity of the product is translated to IC50, obtained from a dose-response curve of various concentrations tested and representing the dose giving 50% specific inhibition (absolute IC50). 2 independent experiments make it possible to calculate the mean of the IC50 values.

Assay [2] concerns AKT protein phosphorylated on serine 473 (P-AKT-S473) in PC3 human prostate carcinoma cells. Nature of the assay: pAKT expression in PC3 human prostate carcinoma cells measured by MSD Multi-spot Biomarker detection (test B). As to conditions: Homo sapiens, PC-3, P-AKT-S473, PC3 cells, MSD sandwich immunoassay, 1 to 2 h incubation, absolute IC50. As to the method:
The inhibitory activity of the molecules on AKT phosphorylation is measured either by western blotting using the technique described below, or by the MSD Multi-spot Biomarker detection technique from Meso Scale Discovery also described below.
Study of pAKT Expression in PC3 Human Prostate Carcinoma Cells Measured by the MSD Multi-Spot Biomarker Detection Technique from Meso Scale Discovery (Test B):
This test is based on measuring the expression of the AKT protein phosphorylated on serine 473 (P-AKT-S473), in the PC3 human prostate carcinoma line, by means of the technique based on a sandwich immunoassay using the MSD Multi-spot Biomarker Detection kit from Meso Scale Discovery: phospho-Akt (Ser473) whole cell lysate kit (#K151CAD) or phospho-Akt (Ser473)/Total Akt whole cell lysate kit (#K151OOD). The primary antibody specific for P-AKT-S473 (Kit #K151CAD) is coated onto an electrode in each well of the 96-well plates of the MSD kit: after the addition of a protein lysate to each well, the signal is visualised by adding a secondary detection antibody labelled with an electrochemoluminescent compound. The procedure followed is that described in the kit.
On day 1, the PC3 cells are seeded into 96-well plates (TPP, #92096) at the concentration of 35 000 cells/well in 200 μl of DMEM medium (DMEM Gibco #11960-044) containing 10% of foetal calf serum (FCS Gibco, #10500-056) and 1% glutamine (L-Glu Gibco #25030-024), and incubated at 37° C., 5% CO2, overnight.
On day 2, the cells are incubated in the presence or absence of the test products for 1 to 2 h at 37° C. in the presence of 5% of CO2. The molecules, diluted in dimethyl sulphoxide (DMSO Sigma #D2650), are added from a 20-times concentrated stock solution, the final percentage of DMSO being 0.1%. The molecules are tested either at a single concentration of less than or equal to 10 μM, or at increasing concentrations in a range that can extend from less than 1 nM to 10 μM.
After this incubation, the cells are lysed for the preparation of the proteins. For this, after the culture medium has been drawn off, 50 μl of complete Tris Lysis Buffer of the MSD kit containing the protease and phosphatase inhibitor solutions are added to the wells and the cells are lysed for 1 h at 4° C. with shaking. At this stage, the plates containing the lysates can be stored at −20° C. or at −80° C.
The wells of the 96-well plates of the MSD kit are saturated for 1 h at ambient temperature with the blocking solution of the MSD kit. Four washes are carried out with 150 μl of Tris Wash Buffer of the MSD kit. The lysates previously prepared are transferred into the 96-well multi-spot plates of the MSD kit and incubated for 1 h at ambient temperature, with shaking. Four washes are carried out with 150 μl of Tris Wash Buffer of the MSD kit. 25 μl of the MSD sulfo-tag detection antibody solution are added to the wells and incubated for 1 h at ambient temperature, with shaking. Four washes are carried out with 150 μl of Tris Wash Buffer of the MSD kit. 150 μl of Read Buffer of the MSD kit are added to the wells and the plates are read immediately on the S12400 instrument from Meso Scale Discovery.
The instrument measures a signal for each well. Wells without cells and containing the lysis buffer serve to determine the background noise that will be subtracted from all the measurements (min). The wells containing cells in the absence of product and in the presence of 0.1% DMSO are considered to be the 100% signal (max). The percentage inhibition is calculated for each concentration of test product according to the following formula: (1-((test−min)/(max−min)))×100.
The activity of the product is translated to IC50, obtained from a dose-response curve of the various concentrations tested and representing the dose giving 50% specific inhibition (absolute IC50). 2 independent experiments make it possible to calculate the mean of the IC50 values.

For assay [3], the system named is P. falciparum (highly chloroquine-resistant strain Fcm29-Cameroon). As to the kind of experiment: Antimalarial activity test (radioactive micromethod of Desjardins, tritiated hypoxanthine incorporation). As to conditions: Plasmodium falciparum, Erythrocyte, infected human erythrocytes, 48 h. As to the method:
Antimalarial Activity Test
The antimalarial activity tests are carried out according to the radioactive micromethod of Desjardins (R. E. Desjardins, C. J. Canfield, J. D. Haynes, J. D. Chulay, Antimicrob. Agents Chemother., 1979, 16, 710-718). The assays are carried out in 96-well microplates (Test Plates Ref. 92696, Techno Plastic Products Ag, Zollstrasse 155, CH-8219 Trasadingen). The P. falciparum strains are cultured in solutions of RPMI 1640 supplemented with 5% of human serum with a haematocrit at 2% and a blood parasite concentration at 1.5%. For each assay, the parasites are incubated with selected concentrations of drugs for 48 h at 37° C. in a humid atmosphere and at 5% CO2. Artemisinin, artesunate and also chloroquine diphosphate are used as reference molecules. The first dilution of the drug is prepared at 1 mg/ml in dimethyl sulphoxide. The range of dilutions of the successive daughter solutions is also prepared in dimethyl sulphoxide. Each daughter dilution is subsequently diluted to 1/50 in RPMI 1640 supplemented with 5% of human serum, all the dilutions being carried out at 37° C. These dilutions are then added to the parasites in culture in the microplates. After addition of the drug, the parasites are in culture in RPMI 1640 containing 5% of human serum and 1% of dimethyl sulphoxide. The parasite growth is measured by incorporation of tritiated hypoxanthine (added 24 h after the beginning of the exposure to the drug) compared with the incorporation in the absence of drug.
The activity of the product is translated to % inhibition of the growth of P. falciparum (highly chloroquine-resistant strain Fcm29-Cameroon) at 1 μM and 0.1 μM in an in vitro test using infected human erythrocytes.

For `CCC(c1ccccc1)N1c2nc(N3CCOCC3)cc(=O)n2C[C@@]1(C)C(F)(F)F` (single isomer, unassigned) [Example 13, (S)-2-Methyl-7-morpholin-4-yl-1-((R) or (S)-1-phenylpropyl)-2-trifluoromethyl-2,3-dihydro-1H-imidazo[1,2-a]pyrimidin-5-one], the half-inhibitory concentration (IC50) in assay [1] came to 822 nM.

On to `CC(c1cccc(F)c1)N1c2nc(N3CCOCC3)cc(=O)n2C[C@@]1(C)C(F)(F)F` (single isomer, unassigned) [Example 22, (2S)-1-[(1R or 1S)-1-(3-Fluorophenyl)ethyl]-2-methyl-7-(morpholin-4-yl)-2-(trifluoromethyl)-2,3-dihydroimidazo[1,2-a]pyrimidin-5(1H)-one], for which the half-maximal inhibitory concentration (IC50) was 59 nM in assay [2] and 872 nM in assay [1].

Consider `C[C@@]1(C(F)(F)F)Cn2c(nc(N3CCOCC3)cc2=O)N1CCSc1ccccc1` [Example 7, (S)-2-Methyl-7-morpholin-4-yl-1-(2-phenylsulfanylethyl)-2-trifluoromethyl-2,3-dihydro-1H-imidazo[1,2-a]pyrimidin-5-one], for which the 50% inhibitory concentration (IC50) in assay [1] is 71 nM. The same measure, in the same setting: next, `C[C@H](CN1c2nc(N3CCOCC3)cc(=O)n2C[C@@]1(C)C(F)(F)F)c1ccccc1` [Example 9, (S)-2-Methyl-7-morpholin-4-yl-1-((S)-2-phenylpropyl)-2-trifluoromethyl-2,3-dihydro-1H-imidazo[1,2-a]pyrimidin-5-one]: 191 nM. Turning to `C[C@@]1(C(F)(F)F)Cn2c(nc(N3CCOCC3)cc2=O)N1C[C@H](O)c1ccccc1` [Example 11], the inhibition at 1 µM in assay [3] came to 13%. Moreover, the IC50 in assay [1] was found to be 235 nM. In the case of `COc1ccc(CCN2c3nc(N4CCOCC4)cc(=O)n3CC2(C)C)cc1` [Example 17, 1-[2-(4-Methoxyphenyl)ethyl]-2,2-dimethyl-7-morpholin-4-yl-2,3-dihydro-1H-imidazo[1,2-a]pyrimidin-5-one], in assay [1], the IC50 turned out to be 345 nM.

`COc1ccc(CCN2c3nc(N4CCOCC4)c(F)c(=O)n3C[C@@]2(C)C(F)(F)F)cc1` [Example 18, (2S)-6-Fluoro-1-[2-(4-methoxyphenyl)ethyl]-2-methyl-7-(morpholin-4-yl)-2-(trifluoromethyl)-2,3-dihydroimidazo[1,2-a]pyrimidin-5(1H)-one]: the IC50 in assay [1] worked out at 39 nM. Compound `C[C@@]1(C(F)(F)F)Cn2c(nc(N3CCOCC3)cc2=O)N1C(=O)c1ccccc1Cl` [Example 34, (2S)-1-[(2-chlorophenyl)carbonyl]-2-methyl-7-(morpholin-4-yl)-2-(trifluoromethyl)-2,3-dihydroimidazo[1,2-a]pyrimidin-5(1H)-one] had a half-inhibitory concentration (IC50) in assay [2] of 159 nM. Consider `COc1cc(F)c(C(O)CN2c3nc(N4CCOCC4)cc(=O)n3C[C@@]2(C)C(F)(F)F)cc1OC` (stereo partly drawn) [Example 39, (S)-1-[2-(2-fluoro-4,5-dimethoxyphenyl)-2-hydroxyethyl]-2-methyl-7-morpholin-4-yl-2-trifluoromethyl-2,3-dihydro-1H-imidazo[1,2-a]pyrimidin-5-one], for which, in assay [3], the inhibition at 0.1 µM amounted to 39% and the inhibition at 1 µM amounted to 85%. Taken in the same sequence, the figures for `COc1ccccc1[C@H](O)CN1c2nc(N3CCOCC3)cc(=O)n2C[C@@]1(C)C(F)(F)F` [Example 40, (S)-1-[(S)-2-hydroxy-2-(2-methoxyphenyl)ethyl]-2-methyl-7-morpholin-4-yl-2-trifluoromethyl-2,3-dihydro-1H-imidazo[1,2-a]pyrimidin-5-one] were 20% and 80%.

`COc1cc(Cl)ccc1[C@H](O)CN1c2nc(N3CCOCC3)cc(=O)n2C[C@@]1(C)C(F)(F)F` [Example 41, (S)-1-[(S)-2-(4-chloro-2-methoxyphenyl)-2-hydroxyethyl]-2-methyl-7-morpholin-4-yl-2-trifluoromethyl-2,3-dihydro-1H-imidazo[1,2-a]pyrimidin-5-one]: the inhibition at 1 µM in assay [3] turned out to be 78%. Same read-out and setting: to `COc1cc(F)ccc1[C@H](O)CN1c2nc(N3CCOCC3)cc(=O)n2C[C@@]1(C)C(F)(F)F` [Example 42, (S)-1-[(S)-2-(4-fluoro-2-methoxyphenyl)-2-hydroxyethyl]-2-methyl-7-morpholin-4-yl-2-trifluoromethyl-2,3-dihydro-1H-imidazo[1,2-a]pyrimidin-5-one] belongs 78%. Regarding `COc1ccc([C@H](O)CN2c3nc(N4CCOCC4)cc(=O)n3C[C@@]2(C)C(F)(F)F)c(Cl)c1` [Example 43, (S)-1-[(S)-2-(2-chloro-4-methoxyphenyl)-2-hydroxyethyl]-2-methyl-7-morpholin-4-yl-2-trifluoromethyl-2,3-dihydro-1H-imidazo[1,2-a]pyrimidin-5-one], in assay [3], the inhibition at 0.1 µM is 22% and the inhibition at 1 µM came out at 74%.
